The values below are quoted from earlier work in PMC8670146 (Journal of Pharmaceutical and Biomedical Analysis, 2021).

In the data set the target is SARS-CoV-2 3CLpro (Severe acute respiratory syndrome coronavirus 2, UniProt P0DTD1). The settings on record: previous study.

Take `O=C(O)[C@H]1O[C@@H](Oc2cc3oc(-c4ccccc4)cc(=O)c3c(O)c2O)[C@H](O)[C@@H](O)[C@@H]1O` [compound 1, Baicalin]: the “in vitro 3CLpro inhibition activity” value is listed as “showed in vitro 3CLpro inhibition activity”. For `O=c1cc(-c2ccccc2)oc2cc(O)c(O)c(O)c12` [compound 2, Baicalein], the “in vitro 3CLpro inhibition activity” value is recorded as “showed in vitro 3CLpro inhibition activity”.
